Data from patent publication US20210244028A1, “TREATMENT FOR REMOVING ECTOPARASITES FROM FISH” (priority 2018, published 2021).
Values joined by “and” are separate entries in the source; they are usually repeats but may differ in a detail not shown here. Equal values may be shown once.

Tested on: azamethiphos- and deltamethrin-resistant sea lice
Assay: In vitro bath exposure of isolated sea lice (Example 6)
Conditions: 60 minutes exposure; for % effect: registered approx. 20 h after end of exposure
Protocol: A trial was performed to ensure there was no cross-resistance between azamethiphos- and deltamethrin-resistant sea lice and neonicotinoids. Both pre-adult and adult stages (mobile stages) of both sexes were used, and they were equally distributed among groups. The sea lice were exposed to imidacloprid for 60 minutes, azamethiphos for 60 minutes and deltamethrin for 30 minutes in one litre baths at a range of concentrations (Tables 6, 7 and 8). The sea lice were transferred to clean aerated seawater after treatment. The temperature of the seawater during the experiment was 12° C., but during exposure the temperature raised to approx. 14° C. in regimes exposed for 60 min. (imidacloprid and azamethiphos) and to 13° C. for the regime exposed in 30 minutes (deltamethrin).
The numbers of live and immobilised (including killed) lice in each regime were registered approximately 20 h after end of exposure. Each louse was individually investigated.

O=[N+]([O-])NC1=NCCN1Cc1ccc(Cl)nc1 [imidacloprid]
% effect (5 ppm): 30% | % effect (10 ppm): 40% and 50% | % effect (15 ppm): 100% | % effect (20 ppm): 100% | % effect (30 ppm): 100% | estimated EC50 value (immobilisation approx. 20 h after exposure): 7.6 ppm
